According to article PMC12378234, “Enzyme-mediated aminoglycoside resistance without target mimicry” (Communications Chemistry, 2025):
“And” between values parts separate entries of the source, which are not always exact repeats. Identical values can stand only once. Like-named read-outs stand apart in the source and are kept apart here.

Experiments:
Assay type in all cases: cell-based
[1] = tested on: BL21(DE3) E. coli transformed with pUCP18 vector expressing untagged AAC(3)-IIIa; settings: E. coli expressing AAC(3)-IIIa; 12 μg mL^−1 antibiotic; 17 h
Method: (§1) Ten milliliters of LB containing […] ampicillin were inoculated from glycerol stocks of transformed BL21(DE3) E. coli containing genes expressing the proteins of interest in pUCP18 vectors. These cultures were incubated at 37 °C with 200 rpm agitation for 16 h. Turbidity was measured through OD600 with a NanoDrop OneC Spectrometer (Thermo Scientific). From the initial cultures, secondary 10 mL cultures were prepared with OD600 values of 0.1. These cultures were grown until OD600 values of 0.4–0.6 were reached and diluted to bring all cultures to the same OD600. Cultures were induced with 1 mM Isopropyl β-D-1-thiogalactopyranoside and incubated for 4 h. Two microliters of culture was added to 198 μL of LB with an appropriate aminoglycoside titration concentration. Each titration point was repeated n = 4 times. The formulated 96-well culture plate (Sarstedt) had OD600 measured on a 20-min interval over 17 h using a BioTek Cytation 5 Cell Imaging Multimode Reader, incubating at 37 °C with 282 cpm orbital agitation. Experiments were repeated with fresh cultures on separate days to ensure consistent trends. Data was analyzed in Microsoft Excel and GraphPad5. The remainder of the culture immediately had its RNA isolated for qPCR experiments.

[2] = tested on: BL21(DE3) E. coli transformed with pUCP18 vector expressing untagged AAC(3)-Ia; settings: E. coli expressing AAC(3)-Ia; 12 μg mL^−1 antibiotic; 17 h
Method: as §1

[3] = tested on: BL21(DE3) E. coli transformed with pUCP18 vector expressing untagged AAC(3)-XIa
Method: as §1

Structure (SMILES): CN[C@@H]1[C@@H](O)[C@@H](O[C@@H]2[C@@H](O)[C@H](O[C@H]3OC(CN)=CC[C@H]3N)[C@@H](N)C[C@H]2N)OC[C@]1(C)O [Sisomicin, sisomicin]
- Growth (OD600 growth curve) [1]: none of the strains of transformed E. coli were able to grow at all
- Growth (OD600 growth curve) [2]: none of the strains of transformed E. coli were able to grow at all
- OD600 growth curve ([3]; 3 ug/mL Sisomicin, time point 12:39:10): 0.741 and 0.631 and 0.615 and 0.786
- OD600 growth curve ([3]; 3 ug/mL Sisomicin, time point 12:59:10): 0.747 and 0.634 and 0.621 and 0.795
- OD600 growth curve ([3]; 3 ug/mL Sisomicin, time point 13:19:10): 0.745 and 0.632 and 0.619 and 0.794
- OD600 growth curve ([3]; 3 ug/mL Sisomicin, time point 13:39:10): 0.742 and 0.632 and 0.619 and 0.79
- OD600 growth curve ([3]; 3 ug/mL Sisomicin, time point 13:59:10): 0.738 and 0.632 and 0.618 and 0.787
- OD600 growth curve ([3]; 3 ug/mL Sisomicin, time point 14:19:10): 0.744 and 0.634 and 0.623 and 0.797
- OD600 growth curve ([3]; 3 ug/mL Sisomicin, time point 14:39:10): 0.747 and 0.635 and 0.625 and 0.799
- OD600 growth curve ([3]; 3 ug/mL Sisomicin, time point 14:59:10): 0.745 and 0.635 and 0.627 and 0.795
- OD600 growth curve ([3]; 6 ug/mL Sisomicin, time point 12:39:10): 0.62 and 0.602 and 0.749 and 0.849
- OD600 growth curve ([3]; 6 ug/mL Sisomicin, time point 12:59:10): 0.627 and 0.606 and 0.748 and 0.838
- OD600 growth curve ([3]; 6 ug/mL Sisomicin, time point 13:19:10): 0.634 and 0.612 and 0.751 and 0.829
- OD600 growth curve ([3]; 6 ug/mL Sisomicin, time point 13:39:10): 0.639 and 0.613 and 0.744 and 0.819
- OD600 growth curve ([3]; 6 ug/mL Sisomicin, time point 13:59:10): 0.641 and 0.612 and 0.741 and 0.805
- OD600 growth curve ([3]; 6 ug/mL Sisomicin, time point 14:19:10): 0.645 and 0.615 and 0.738 and 0.792
- OD600 growth curve ([3]; 6 ug/mL Sisomicin, time point 14:39:10): 0.654 and 0.626 and 0.749 and 0.784
- OD600 growth curve ([3]; 6 ug/mL Sisomicin, time point 14:59:10): 0.663 and 0.629 and 0.759 and 0.771
- OD600 growth curve ([3]; 6 ug/mL Sisomicin, time point 15:19:10): 0.67 and 0.64 and 0.762
- OD600 growth curve ([3]; 12 ug/mL Sisomicin, time point 12:39:10): 0.093 and 0.101 and 0.109 and 0.105
- OD600 growth curve ([3]; 12 ug/mL Sisomicin, time point 12:59:10): 0.093 and 0.101 and 0.109 and 0.105
- OD600 growth curve ([3]; 12 ug/mL Sisomicin, time point 13:19:10): 0.093 and 0.101 and 0.108 and 0.104
- OD600 growth curve ([3]; 12 ug/mL Sisomicin, time point 13:39:10): 0.093 and 0.101 and 0.108 and 0.104
- OD600 growth curve ([3]; 12 ug/mL Sisomicin, time point 13:59:10): 0.093 and 0.1 and 0.108 and 0.104
- OD600 growth curve ([3]; 12 ug/mL Sisomicin, time point 14:19:10): 0.093 and 0.1 and 0.108 and 0.103
- OD600 growth curve ([3]; 12 ug/mL Sisomicin, time point 14:39:10): 0.093 and 0.1 and 0.108 and 0.103
- OD600 growth curve ([3]; 12 ug/mL Sisomicin, time point 14:59:10): 0.093 and 0.1 and 0.107 and 0.103
- OD600 growth curve ([3]; 12 ug/mL Sisomicin, time point 15:19:10): 0.093
- Growth (OD600 growth curve) ([3]; E. coli expressing AAC(3)-XIa, 12 μg mL^−1 antibiotic, 17 h): none of the strains of transformed E. coli were able to grow at all
